Reference: patent US12104173B2, “Method for differentiation of human pluripotent stem cell lines in suspension culture” (AGENCY FOR SCIENCE, TECHNOLOGY AND RESEARCH, priority 2018, dated 2024)

Experiments:
Assay in all cases: CHIR dose: hematopoietic/erythroid differentiation of agitated hPSC-MC aggregates
Type in all cases: cell-based, human
BR2 O-neg hiPSC line = test system: BR2 O-neg hiPSC line
Method: (§1) Human pluripotent stem cell-microcarrier (HPSC-MC) aggregates generated from different hPSC lines were differentiated using 3 different CHIR doses (5, 10 and 15 μM for 24 hours) and were evaluated for T-bra (day 2) and KDR+PDGFRβ− (day 4) expression by flow cytometry, induction of key hematopoietic transcription factors by RT-PCR (day 4), hematopoietic precursor expansion (day 14) and erythroblast expansion (day 42).
(§2) Table 2—Hematopoietic differentiation of nine human pluripotent stem cell (hPSC) lines, from expansion in agitated microcarrier culture to erythroblast expansion—This table summarises the different stages of differentiation; hPSC expansion, mesoderm induction, hematopoietic precursor and erythroblast expansion of multiple hPSC-MC aggregate lines differentiated with optimal dose of CHIR-99021. Fold-expansion of hPSC-MC aggregates following 7 days of agitated culture, hematopoietic precursors following 14 days of culture in methylcellulose medium and erythroblast expansion following 24 days in expansion medium are reported. Flow cytometric evaluation of % T-bra+ cells on day 2 and % KDR+ cells on day 4 during mesoderm induction, % CD43+ cells during hematopoietic precursor expansion, % CD235a+ cells and fetal hemoglobin expression during erythroblast expansion stage are summarised. Total erythroid cells per hPSC seeded on day 42 was calculated as number of embryoid bodies derived on day 4 per hPSC seeded*erythroblast fold expansion*percent CD235a+ erythroblast.
(§3) Analysis of Design of experiments (DoE) outcomes and evaluation of selected conditions generated by the MODDE® software allowed the development of an optimized protocol for hematopoietic mesoderm induction of human pluripotent stem cell-microcarrier (hPSC-MC) aggregates initially expanded under continuous agitation. Approximately 2 to 4 million hPSC-MC aggregates in 3 ml of Stemline® II medium were differentiated as follows: day 1; 30 ng/ml of BMP4, 50 ng/ml VEGF165, 12 μM CHIR-99021 (Selleck Chemicals, USA), 50 ng/ml Activin A, day 2; 30 ng/ml of BMP4, 50 ng/ml VEGF165, 50 ng/ml Activin A, day 3: 30 ng/ml of BMP4, 50 ng/ml VEGF165 and 20 ng/ml bFGF. Four days post-differentiation, single cells derived by TrypLE™ Express (ThermoFisher Scientific) treatment and strained through 40 μm cell strainers (Greiner Bio-one, Germany) were used for hematopoietic precursor and erythroblast expansion and erythroblast terminal maturation as detailed herein. Hematopoietic and erythroblast differentiation were monitored by flow cytometry, quantitative real-time PCR, immunoblotting and microscopic imaging. Oxygen binding affinity of differentiated erythroblast was determined using a Hemox Analyzer (TCS Scientific Corp, USA).
(§4) HPSC-MC aggregates were dissociated into single cells by treatment with TrypLE. Express (ThermoFisher Scientific) for 5 minutes at 37° C., passed through 40 μm cell strainer (Greiner Bio-one), centrifuged at 1300 rpm for 3 minutes to pellet cells, and rinsed once with phosphate buffered saline (PBS) before re-suspension in Stemline II medium. Two hundred thousand cells in 100 μl of Stemline II medium were transferred to a 6-well ultra-low attachment plate and cultured with Blast growth medium (BGM) for 2 weeks in static conditions as detailed herein.
(§5) Hematopoietic precursors were mixed with equal volume of Stemline II medium containing 50 ng/ml of SCF (STEMCELL. Technologies) and 3 U/ml EPO (Peprotech, USA), for an additional 7 days. Subsequently, cells were diluted 10-fold with PBS and pelleted by centrifugation at 3000 rpm for 10 minutes. […]

D12 O-neg hiPSC line = test system: D12 O-neg hiPSC line
Method: as §1, §2, §3, §4, §5

D11 O-neg hiPSC line = test system: D11 O-neg hiPSC line
Method: as §1, §2, §3, §4, §5

X13 O-neg hiPSC line = conditions: for Erythroblast expansion Fold-expansion: optimal dose of CHIR-99021, 24 days in erythroblast expansion medium (static), cumulative; for Total erythroid cells per hPSC seeded (day 42): optimal dose of CHIR-99021, CD235a+ erythroid cells
Method: as §1, §2, §3, §4, §5

D9 O-neg hiPSC line = conditions: for Erythroblast expansion Fold-expansion: optimal dose of CHIR-99021, 24 days in erythroblast expansion medium (static), cumulative
Method: as §1, §2, §3, §4, §5

BR7 O-neg hiPSC line = conditions: for Erythroblast expansion Fold-expansion: optimal dose of CHIR-99021, 24 days in erythroblast expansion medium (static), cumulative
Method: as §1, §2, §3, §4, §5

D5 O-neg hiPSC line = conditions: for Erythroblast expansion Fold-expansion: optimal dose of CHIR-99021, 24 days in erythroblast expansion medium (static), cumulative
Method: as §1, §2, §3, §4, §5

IMR90 hiPSC line = conditions: for Erythroblast expansion Fold-expansion: optimal dose of CHIR-99021, 24 days in erythroblast expansion medium (static), cumulative
Method: as §1, §2, §3, §4, §5

[1] = 15 μM CHIR dose, day 14 post differentiation
[2] = 15 μM CHIR for 24 hours, day 2, flow cytometry
[3] = 15 μM CHIR for 24 hours, day 4, flow cytometry
[4] = erythroblast expansion medium, up to day 42
[5] = optimal dose of CHIR-99021, 14 days in methyl cellulose medium
[6] = optimal dose of CHIR-99021, 14 days in methyl cellulose medium (static)
[7] = optimal dose of CHIR-99021, day 2
[8] = optimal dose of CHIR-99021, day 4
[9] = optimal dose of CHIR-99021, erythroblast expansion stage
[10] = optimal dose of CHIR-99021, fetal hemoglobin, flow cytometry

SMILES: Cc1c[nH]c(-c2cnc(NCCNc3ccc(C#N)cn3)nc2-c2ccc(Cl)cc2Cl)n1 [CHIR-99021, 6-[[2-[[4-(2,4-Dichlorophenyl)-5-(5-methyl-1H-imidazol-2-yl)-2-pyrimidinyl]amino]ethyl]amino]-3-pyridinecarbonitrile]
- fold-expansion of hematopoietic precursors (BR2 O-neg hiPSC line; [1]): 8.07±2.06 fold
- T-Bra+ cells (BR2 O-neg hiPSC line; [2]): 20.1±2.4%
- KDR+PDGFRβ- cells (BR2 O-neg hiPSC line; [3]): 24.07±1.34%
- erythroblast differentiation (BR2 O-neg hiPSC line; [4]): failed to differentiate into erythroid cells
- Hematopoietic precursor expansion % CD43 (BR2 O-neg hiPSC line; [5]): 8.7%
- Hematopoietic precursor expansion Fold-expansion (BR2 O-neg hiPSC line; [6]): 8.1 fold
- Mesoderm induction % T-Bra (BR2 O-neg hiPSC line; [7]): 20.1%
- Mesoderm induction % KDR+ PDGFRα− (BR2 O-neg hiPSC line; [8]): 24.1%
- fold-expansion of hematopoietic precursors (D12 O-neg hiPSC line; [1]): 5.26±1.32 fold
- T-Bra+ cells (D12 O-neg hiPSC line; [2]): 10.6±2.78%
- KDR+PDGFRβ- cells (D12 O-neg hiPSC line; [3]): 31.13±5.17%
- erythroblast differentiation (D12 O-neg hiPSC line; [4]): failed to differentiate into erythroid cells
- Hematopoietic precursor expansion % CD43 (D12 O-neg hiPSC line; [5]): 22%
- Hematopoietic precursor expansion Fold-expansion (D12 O-neg hiPSC line; [6]): 7.9 fold
- Mesoderm induction % T-Bra (D12 O-neg hiPSC line; [7]): 10.9%
- Mesoderm induction % KDR+ PDGFRα− (D12 O-neg hiPSC line; [8]): 20.7%
- fold-expansion of hematopoietic precursors (D11 O-neg hiPSC line; [1]): 3.2±0.33 fold
- T-Bra+ cells (D11 O-neg hiPSC line; [2]): 33.4±4.10%
- KDR+PDGFRβ- cells (D11 O-neg hiPSC line; [3]): 11.74±1.16%
- erythroblast differentiation (D11 O-neg hiPSC line; [4]): failed to differentiate into erythroid cells
- Hematopoietic precursor expansion % CD43 (D11 O-neg hiPSC line; [5]): 17.4%
- Hematopoietic precursor expansion Fold-expansion (D11 O-neg hiPSC line; [6]): 3.2 fold
- Mesoderm induction % T-Bra (D11 O-neg hiPSC line; [7]): 33.4%
- Mesoderm induction % KDR+ PDGFRα− (D11 O-neg hiPSC line; [8]): 11.7%
- fold-expansion of hematopoietic precursors (X13 O-neg hiPSC line; [1]): 9.93±0.28 fold
- T-Bra+ cells (X13 O-neg hiPSC line; [2]): 60.9±8.55%
- KDR+PDGFRβ- cells (X13 O-neg hiPSC line; [3]): 40.8±1.34%
- Hematopoietic precursor expansion % CD43 (X13 O-neg hiPSC line; [5]): 43.9%
- Hematopoietic precursor expansion Fold-expansion (X13 O-neg hiPSC line; [6]): 9.9 fold
- Erythroblast expansion Fold-expansion (X13 O-neg hiPSC line; day 42): 12605 fold
- Erythroblast expansion Fold-expansion (X13 O-neg hiPSC line; day 42, listed as CHIR): 12605±2126 fold
- Total erythroid cells per hPSC seeded (day 42) (X13 O-neg hiPSC line): 7607
- Total erythroid cells per hPSC seeded (day 42) (X13 O-neg hiPSC line; listed as CHIR): 7607±1016
- Mesoderm induction % T-Bra (X13 O-neg hiPSC line; [7]): 60.9%
- Erythroblast expansion % CD235a+ (X13 O-neg hiPSC line; [9]): 67.4%
- Erythroblast expansion Hemoglobin expression (X13 O-neg hiPSC line; [10]): 96.9
- T-Bra+ cells (D9 O-neg hiPSC line; [2]): 39±5.37%
- KDR+PDGFRβ- cells (D9 O-neg hiPSC line; [3]): 18.07±0.6%
- Total erythroid cells per hPSC seeded (day 42) (D9 O-neg hiPSC line; optimal dose of CHIR-99021): 63
- Hematopoietic precursor expansion % CD43 (D9 O-neg hiPSC line; [5]): 21.3%
- Hematopoietic precursor expansion Fold-expansion (D9 O-neg hiPSC line; [6]): 6.0 fold
- Erythroblast expansion Fold-expansion (D9 O-neg hiPSC line; day 42): 121 fold
- Erythroblast expansion Fold-expansion (D9 O-neg hiPSC line; day 42, listed as CHIR): 121.2±36.89 fold
- Mesoderm induction % T-Bra (D9 O-neg hiPSC line; [7]): 41.8%
- Erythroblast expansion % CD235a+ (D9 O-neg hiPSC line; [9]): 57.5%
- Erythroblast expansion Hemoglobin expression (D9 O-neg hiPSC line; [10]): 97.8
- fold-expansion of hematopoietic precursors (BR7 O-neg hiPSC line; [1]): 5.81±0.92 fold
- T-Bra+ cells (BR7 O-neg hiPSC line; [2]): 20.8±3.8%
- KDR+PDGFRβ- cells (BR7 O-neg hiPSC line; [3]): 18.6±1.57%
- Total erythroid cells per hPSC seeded (day 42) (BR7 O-neg hiPSC line; optimal dose of CHIR-99021): 12
- Hematopoietic precursor expansion % CD43 (BR7 O-neg hiPSC line; [5]): 14.3%
- Hematopoietic precursor expansion Fold-expansion (BR7 O-neg hiPSC line; [6]): 5.8 fold
- Erythroblast expansion Fold-expansion (BR7 O-neg hiPSC line; day 42): 31.5 fold
- Erythroblast expansion Fold-expansion (BR7 O-neg hiPSC line; day 42, listed as CHIR): 31.48±7.7 fold
- Mesoderm induction % T-Bra (BR7 O-neg hiPSC line; [7]): 20.8%
- Erythroblast expansion % CD235a+ (BR7 O-neg hiPSC line; [9]): 33.8%
- Erythroblast expansion Hemoglobin expression (BR7 O-neg hiPSC line; [10]): 95.5
- fold-expansion of hematopoietic precursors (D5 O-neg hiPSC line; [1]): 7.99±0.82 fold
- T-Bra+ cells (D5 O-neg hiPSC line; [2]): 55.6±8.26%
- KDR+PDGFRβ- cells (D5 O-neg hiPSC line; [3]): 35.77±1.53%
- Total erythroid cells per hPSC seeded (day 42) (D5 O-neg hiPSC line; optimal dose of CHIR-99021): 2308
- Hematopoietic precursor expansion % CD43 (D5 O-neg hiPSC line; [5]): 27.7%
- Hematopoietic precursor expansion Fold-expansion (D5 O-neg hiPSC line; [6]): 7.9 fold
- Erythroblast expansion Fold-expansion (D5 O-neg hiPSC line; day 42): 3712 fold
- Erythroblast expansion Fold-expansion (D5 O-neg hiPSC line; day 42, listed as CHIR): 3712±1651 fold
- Mesoderm induction % T-Bra (D5 O-neg hiPSC line; [7]): 55.6%
- Erythroblast expansion % CD235a+ (D5 O-neg hiPSC line; [9]): 74.6%
- Erythroblast expansion Hemoglobin expression (D5 O-neg hiPSC line; [10]): 99.2
- T-Bra+ cells (IMR90 hiPSC line; [2]): 17.22±7.4%
- KDR+PDGFRβ- cells (IMR90 hiPSC line; [3]): 14.2±1.69%
- Total erythroid cells per hPSC seeded (day 42) (IMR90 hiPSC line; optimal dose of CHIR-99021): 1300
- Hematopoietic precursor expansion % CD43 (IMR90 hiPSC line; [5]): 21.9%
- Hematopoietic precursor expansion Fold-expansion (IMR90 hiPSC line; [6]): 7.9 fold
- Erythroblast expansion Fold-expansion (IMR90 hiPSC line; day 42): 918.1 fold
- Erythroblast expansion Fold-expansion (IMR90 hiPSC line; day 42, listed as CHIR): 918.1±342.4 fold
- Mesoderm induction % T-Bra (IMR90 hiPSC line; [7]): 17.2%
- Erythroblast expansion % CD235a+ (IMR90 hiPSC line; [9]): 75.9%
- Erythroblast expansion Hemoglobin expression (IMR90 hiPSC line; [10]): 98.1
